Several values for one entry are separate records, joined by “and”; a condition that tells them apart may be missing. Equal values may be shown once.
Test system: RET-altered solid tumors
Assay: Phase 1 trial: anti-tumor efficacy (RECIST 1.1)
Assay type: in vivo, human
Procedure: Radiologic tumor assessments were conducted by computed tomography (CT) or magnetic resonance imaging (MRI) of brain, chest, abdomen, and pelvis at baseline, 4 weeks for the first tumor assessment, then every 8 weeks (± 7 days) for 1 year, and every 12 weeks (± 7 days) thereafter. MTC patients were longitudinally monitored for serum calcitonin and carcinoembryonic antigen (CEA) levels.

[1] = All patients, 160 mg BID (n = 95)
[2] = All patients, 200 mg BID (n = 10)
[3] = All patients, all doses (n = 116)
[4] = Previously treated, 160 mg BID (n = 58)
[5] = Previously treated, 200 mg BID (n = 8)
[6] = Previously treated, all doses (n = 76)
[7] = RP2D 160 mg BID, MTC, all (n = 23)
[8] = RP2D 160 mg BID, NSCLC, all (n = 64)
[9] = RP2D 160 mg BID, PTC, all (n = 7)
[10] = RP2D, MTC, previously treated (n = 15)
[11] = RP2D, MTC, treatment-naïve (n = 8)
[12] = RP2D, NSCLC, previously treated (n = 36)
[13] = RP2D, NSCLC, treatment-naïve (n = 28)
[14] = RP2D, PTC, previously treated (n = 6)

COc1ccc(CN2C3CC2CN(c2ccc(-c4cc(N5CC(C)(O)C5)cn5ncc(C#N)c45)cn2)C3)cn1 [SY-5007, 6-(3-hydroxy-3-methylazetidin-1-yl)-4-(6-(6-((6-methoxypyridin-3-yl)methyl)-3,6-diazabicyclo[3.1.1]heptan-3-yl)pyridin-3-yl)pyrazolo[1,5-a]pyridine-3-carbonitrile]
Patients with target tumor shrinkage (111/116): 95.7% | Progressive disease (All patients, 20 mg QD to 120 mg BID cohorts): 0 (0.0) n (%) | DCR (95% CI) (All patients, 20 mg QD to 120 mg BID cohorts, 20 mg once daily): 100.0 (2.5–100.0) % | Median TTR (95% CI) (All patients, 20 mg QD to 120 mg BID cohorts, 20 mg twice daily): 6.73 (NE-NE) months | DCR (95% CI) (All patients, 20 mg QD to 120 mg BID cohorts, 40 mg twice daily): 100.0 (29.2–100.0) % | Median TTR (95% CI) (All patients, 20 mg QD to 120 mg BID cohorts, 120 mg twice daily): 8.37 (1.18-NE) months | DCR (95% CI) [1]: 94.7 (88.1–98.3) % | Median DoR (95% CI) [1]: 13.0 (12.8-NE) months | Median PFS (95% CI) [1]: 15.4 (13.8-NE) months | Median TTR (95% CI) [1]: 2.79 (2.75–4.63) months | ORR (95% CI) [1]: 58.9 (48.4–68.9) % | Partial response [1]: 56 (58.9) n (%) | Progressive disease [1]: 5 (5.3) n (%) | Stable disease [1]: 34 (35.8) n (%) | DCR (95% CI) [2]: 100.0 (69.2–100.0) % | Median TTR (95% CI) [2]: 1.14 (0.91-NE) months | ORR (95% CI) [2]: 60.0 (26.2–87.8) % | Partial response [2]: 6 (60.0) n (%) | Progressive disease [2]: 0 (0.0) n (%) | Stable disease [2]: 4 (40.0) n (%) | DCR (95% CI) [3]: 95.7 (90.2–98.6) % | Median DoR (95% CI) [3]: 19.9 months and 19.9 (12.8–NE) months | Median PFS (95% CI) [3]: 21.1 months and 21.1 (13.8–NE) months | Median TTR (95% CI) [3]: 2.82 (2.75–4.66) months | ORR (95% CI) [3]: 57.8 (48.2–66.9) % | Partial response [3]: 67 (57.8) n (%) | Progressive disease [3]: 5 (4.3) n (%) | Stable disease [3]: 44 (37.9) n (%) | Estimated 12-month PFS rate (MTC at RP2D): 85.2% | Estimated 6-month PFS rate (NSCLC at 160 mg BID): 89.6% | Estimated 12-month PFS rate (NSCLC at 160 mg BID): 67.5% | Estimated 12-month PFS rate (PTC at RP2D): 100.0% | Median PFS (95% CI) (Previously treated, 20 mg QD (n = 1)): 4.83 (NE-NE) months | Progressive disease (Previously treated, 20 mg QD to 120 mg BID cohorts): 0 (0.0) n (%) | DCR (95% CI) (Previously treated, 20 mg QD to 120 mg BID cohorts, 20 mg once daily): 100.0 (2.5–100.0) % | Median TTR (95% CI) (Previously treated, 20 mg QD to 120 mg BID cohorts, 20 mg twice daily): 6.73 (NE-NE) months | DCR (95% CI) (Previously treated, 20 mg QD to 120 mg BID cohorts, 40 mg twice daily): 100.0 (15.8–100.0) % | DCR (95% CI) (Previously treated, 20 mg QD to 120 mg BID cohorts, 80 mg twice daily): 100.0 (29.2–100.0) % | Median TTR (95% CI) (Previously treated, 20 mg QD to 120 mg BID cohorts, 120 mg twice daily): 8.37 (1.18-NE) months | DCR (95% CI) [4]: 94.8 (85.6–98.9) % | Median DoR (95% CI) [4]: 13.0 (9.23-NE) months | Median PFS (95% CI) [4]: 15.4 (13.8-NE) months | Median TTR (95% CI) [4]: 4.56 (2.75-NE) months | ORR (95% CI) [4]: 51.7 (38.2–65.0) % | Partial response [4]: 30 (51.7) n (%) | Progressive disease [4]: 3 (5.2) n (%) | Stable disease [4]: 25 (43.1) n (%) | DCR (95% CI) [5]: 100.0 (63.1–100.0) % | Median TTR (95% CI) [5]: 3.15 (0.91-NE) months | ORR (95% CI) [5]: 50.0 (15.7–84.3) % | Partial response [5]: 4 (50.0) n (%) | Progressive disease [5]: 0 (0.0) n (%) | Stable disease [5]: 4 (50.0) n (%) | DCR (95% CI) [6]: 96.1 (88.9–99.2) % | Median DoR (95% CI) [6]: 19.9 (12.8-NE) months | Median TTR (95% CI) [6]: 4.63 (2.75-NE) months | ORR (95% CI) [6]: 51.3 (39.6–63.0) % | Partial response [6]: 39 (51.3) n (%) | Progressive disease [6]: 3 (3.9) n (%) | Stable disease [6]: 34 (44.7) n (%) | Patients with progression or death (RET fusion-positive NSCLC at 160 mg BID): 26.6% | DCR (95% CI) [7]: 91.3 (72.0-98.9) % | Median TTR (95% CI) [7]: 4.66 (2.75-NE) months | ORR (95% CI) [7]: 52.2 (30.6-73.2) % | Partial response [7]: 12 (52.2) n (%) | Progressive disease [7]: 2 (8.7) n (%) | Stable disease [7]: 9 (39.1) n (%) | DCR (95% CI) [8]: 96.9 (89.2-99.6) % | Median DoR (95% CI) [8]: 13.0 months and 13.0 (9.26-NE) months | Median PFS (95% CI) [8]: 15.4 months and 15.4 (10.1-NE) months | Median TTR (95% CI) [8]: 2.75 (1.01-2.89) months | ORR (95% CI) [8]: 64.1 (51.1-75.7) % | Partial response [8]: 41 (64.1) n (%) | Progressive disease [8]: 2 (3.1) n (%) | Stable disease [8]: 21 (32.8) n (%) | DCR (95% CI) [9]: 100.0 (59.0-100.0) % | ORR (95% CI) [9]: 42.9 (9.9-81.6) % | Partial response [9]: 3 (42.9) n (%) | Progressive disease [9]: 0 (0.0) n (%) | Stable disease [9]: 4 (57.1) n (%) | DCR (95% CI) [10]: 100.0 (78.2-100.0) % | ORR (95% CI) [10]: 40.0 (16.3-67.7) % | Partial response [10]: 6 (40.0) n (%) | Progressive disease [10]: 0 (0.0) n (%) | Stable disease [10]: 9 (60.0) n (%) | DCR (95% CI) [11]: 75.0 (34.9-96.8) % | Median TTR (95% CI) [11]: 2.75 (0.85-NE) months | ORR (95% CI) [11]: 75.0 (34.9-96.8) % | Partial response [11]: 6 (75.0) n (%) | Progressive disease [11]: 2 (25.0) n (%) | Stable disease [11]: 0 (0.0) n (%) | DCR (95% CI) [12]: 94.4 (81.3-99.3) % | Median DoR (95% CI) [12]: 13.0 (9.20-NE) months | Median PFS (95% CI) [12]: 13.8 (10.1-NE) months | Median TTR (95% CI) [12]: 2.75 (0.98-NE) months | ORR (95% CI) [12]: 58.3 (40.8-74.5) % | Partial response [12]: 21 (58.3) n (%) | Progressive disease [12]: 2 (5.6) n (%) | Stable disease [12]: 13 (36.1) n (%) | DCR (95% CI) [13]: 100.0 (87.7-100.0) % | Median DoR (95% CI) [13]: 14.5 (9.26-NE) months | Median PFS (95% CI) [13]: 15.5 (9.23-NE) months | Median TTR (95% CI) [13]: 1.11 (0.91-3.15) months | ORR (95% CI) [13]: 71.4 (51.3-86.8) % | Partial response [13]: 20 (71.4) n (%) | Progressive disease [13]: 0 (0.0) n (%) | Stable disease [13]: 8 (28.6) n (%) | DCR (95% CI) [14]: 100.0 (54.1-100.0) % | ORR (95% CI) [14]: 50.0 (11.8-88.2) % | Partial response [14]: 3 (50.0) n (%) | Progressive disease [14]: 0 (0.0) n (%) | Stable disease [14]: 3 (50.0) n (%) | DCR (95% CI) (RP2D, PTC, treatment-naïve (n = 1)): 100.0 (2.5-100.0) %
